From patent US8440724B2, “Inhibiting neurotransmitter reuptake” (Mayo Foundation for Medical Education and Research, priority 2008, dated 2013)
Where two headings read alike, the source gives them in different places.

Assays:
[1] = system: rat 5-HT, NE and DA transport, synaptosomal preparations; assay: Rat brain synaptosomal transport: rank order of potency; type: biochemical; details: from Ki values; S = 5HT, N = NE, D = DA
[2] = target: T1, human dopamine transporter (hDAT) (Homo sapiens, UniProt Q01959); assay: Radioligand binding to cloned hDAT, [3H]WIN35428, HEK-293 cell membranes; details: for Binding at hDAT compared to PRC200-SS: in words
T1 construct: expressed in transfected cells; host or cells: HEK-293, stably transfected
T1 sequence (Q01959 whole entry): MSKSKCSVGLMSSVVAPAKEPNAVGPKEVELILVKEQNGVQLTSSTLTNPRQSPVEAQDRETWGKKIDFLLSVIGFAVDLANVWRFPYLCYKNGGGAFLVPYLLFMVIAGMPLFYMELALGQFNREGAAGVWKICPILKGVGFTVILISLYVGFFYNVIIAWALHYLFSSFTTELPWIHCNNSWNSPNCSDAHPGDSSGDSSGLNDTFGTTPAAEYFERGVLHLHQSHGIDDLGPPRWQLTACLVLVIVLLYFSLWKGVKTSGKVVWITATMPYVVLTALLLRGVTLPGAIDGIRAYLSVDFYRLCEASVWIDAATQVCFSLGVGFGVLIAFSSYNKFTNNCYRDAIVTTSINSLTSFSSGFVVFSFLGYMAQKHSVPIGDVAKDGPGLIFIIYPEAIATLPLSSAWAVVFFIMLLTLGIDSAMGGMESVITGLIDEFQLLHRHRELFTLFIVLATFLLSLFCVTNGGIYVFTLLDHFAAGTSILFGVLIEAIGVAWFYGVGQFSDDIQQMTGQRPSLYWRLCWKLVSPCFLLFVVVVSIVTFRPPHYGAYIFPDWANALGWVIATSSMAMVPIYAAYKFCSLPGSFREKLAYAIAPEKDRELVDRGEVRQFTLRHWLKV

[3] = target: T2, human norepinephrine transporter (hNET) (Homo sapiens, UniProt P23975); assay: Radioligand binding to cloned hNET, [3H]nisoxetine, HEK-293 cell membranes
T2 construct: expressed in transfected cells; host or cells: HEK-293, stably transfected
T2 sequence (P23975 whole entry): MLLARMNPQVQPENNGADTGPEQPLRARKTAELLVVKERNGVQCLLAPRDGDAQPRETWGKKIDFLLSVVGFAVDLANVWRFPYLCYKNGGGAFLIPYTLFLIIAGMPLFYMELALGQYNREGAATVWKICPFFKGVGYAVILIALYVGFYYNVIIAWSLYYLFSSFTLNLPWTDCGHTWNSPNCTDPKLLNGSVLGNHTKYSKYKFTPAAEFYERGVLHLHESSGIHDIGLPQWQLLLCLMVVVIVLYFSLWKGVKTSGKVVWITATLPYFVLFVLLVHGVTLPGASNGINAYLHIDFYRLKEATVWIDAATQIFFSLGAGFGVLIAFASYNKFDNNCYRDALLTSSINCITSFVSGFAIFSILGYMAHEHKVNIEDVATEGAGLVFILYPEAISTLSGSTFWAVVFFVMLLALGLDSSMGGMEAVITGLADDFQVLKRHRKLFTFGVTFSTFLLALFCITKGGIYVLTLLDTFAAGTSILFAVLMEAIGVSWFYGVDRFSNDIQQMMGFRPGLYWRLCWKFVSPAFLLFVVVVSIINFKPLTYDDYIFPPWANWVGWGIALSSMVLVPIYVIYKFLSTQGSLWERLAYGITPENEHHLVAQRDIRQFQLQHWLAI

hERG = hERG (Homo sapiens, UniProt Q12809); assay: hERG assay: block of rubidium ion (Rb+) efflux from cells expressing hERG; details: for Blocking of hERG channel compared with PRC200-SS: in words
Sequence of hERG (Q12809 whole entry): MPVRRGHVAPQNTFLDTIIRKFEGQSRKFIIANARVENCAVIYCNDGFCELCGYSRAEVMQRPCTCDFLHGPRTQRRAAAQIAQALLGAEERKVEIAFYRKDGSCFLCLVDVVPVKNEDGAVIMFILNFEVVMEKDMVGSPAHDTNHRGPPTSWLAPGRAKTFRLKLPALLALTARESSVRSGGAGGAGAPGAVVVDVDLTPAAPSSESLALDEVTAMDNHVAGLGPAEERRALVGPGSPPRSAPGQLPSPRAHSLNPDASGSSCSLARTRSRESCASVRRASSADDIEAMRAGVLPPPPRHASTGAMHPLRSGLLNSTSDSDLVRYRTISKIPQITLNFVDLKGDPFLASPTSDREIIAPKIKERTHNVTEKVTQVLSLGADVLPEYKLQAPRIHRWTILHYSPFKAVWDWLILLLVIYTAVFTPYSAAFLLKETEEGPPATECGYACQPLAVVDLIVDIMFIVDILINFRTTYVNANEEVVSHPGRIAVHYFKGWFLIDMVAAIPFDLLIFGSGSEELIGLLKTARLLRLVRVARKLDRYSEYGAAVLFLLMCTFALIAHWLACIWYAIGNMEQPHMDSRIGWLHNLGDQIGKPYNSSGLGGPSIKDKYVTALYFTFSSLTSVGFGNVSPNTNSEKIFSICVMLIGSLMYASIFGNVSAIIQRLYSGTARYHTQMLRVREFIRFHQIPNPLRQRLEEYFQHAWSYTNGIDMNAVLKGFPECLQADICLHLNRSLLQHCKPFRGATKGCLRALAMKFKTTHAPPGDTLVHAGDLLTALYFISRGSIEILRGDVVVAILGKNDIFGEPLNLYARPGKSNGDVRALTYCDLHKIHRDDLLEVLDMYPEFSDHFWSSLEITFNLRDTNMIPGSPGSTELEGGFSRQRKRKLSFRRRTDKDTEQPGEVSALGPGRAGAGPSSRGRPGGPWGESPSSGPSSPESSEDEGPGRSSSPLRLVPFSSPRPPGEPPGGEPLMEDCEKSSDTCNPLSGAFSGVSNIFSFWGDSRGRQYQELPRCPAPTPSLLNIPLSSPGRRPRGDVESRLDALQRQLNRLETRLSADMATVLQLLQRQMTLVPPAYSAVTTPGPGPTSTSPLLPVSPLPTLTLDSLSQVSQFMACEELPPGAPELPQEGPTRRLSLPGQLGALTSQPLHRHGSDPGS
Description: Human “ether-a-go-go” (hERG) is an ion channel. Blockade of this channel can be predictive of causing cardiac arrhythmias in humans. hERG assays were performed to measure the ability of a compound to block rubidium ion (Rb^+) efflux from cells expressing hERG. Cells were pre-loaded with Rb^+, incubated with test compound, and then exposed to a buffer that opens the channel and allows the efflux of ions. Compounds as powder were dissolved in 100% DMSO to prepare 100 mM stock solutions. […] The stocks were stored at 23° C.
The range of doses for the test compounds was 30 nM through 100,000 nM.

CYP2D6 = target: T3, CYP2D6 (Homo sapiens, UniProt P10635); assay: CYP2D6 inhibition, CYP2D6/AMMC kit (BD Biosciences), fluorescent substrate; type: in vitro ADME; details: for Potency of inhibition at CYP2D6, in words: compared with PRC200-SS
T3 construct: purchased BD Biosciences 459200
T3 sequence (P10635 whole entry): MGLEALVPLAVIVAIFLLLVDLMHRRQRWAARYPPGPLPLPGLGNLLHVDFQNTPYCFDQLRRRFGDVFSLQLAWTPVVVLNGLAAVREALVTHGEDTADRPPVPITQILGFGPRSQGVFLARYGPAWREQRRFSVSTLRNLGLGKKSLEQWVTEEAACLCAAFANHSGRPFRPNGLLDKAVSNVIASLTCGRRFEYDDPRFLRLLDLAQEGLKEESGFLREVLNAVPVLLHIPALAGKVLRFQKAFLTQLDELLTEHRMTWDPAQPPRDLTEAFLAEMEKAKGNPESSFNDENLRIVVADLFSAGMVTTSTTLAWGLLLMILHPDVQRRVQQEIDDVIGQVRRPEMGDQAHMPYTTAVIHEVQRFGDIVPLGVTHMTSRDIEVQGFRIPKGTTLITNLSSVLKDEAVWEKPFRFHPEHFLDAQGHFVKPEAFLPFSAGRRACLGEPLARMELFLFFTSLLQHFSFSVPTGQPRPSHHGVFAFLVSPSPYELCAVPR
Excerpt: This kit includes the use of a fluorescent P450 substrate (AMMC or 3-[2-(N,N-diethyl-N-methylamino)ethyl]-7-methoxy-4-methylcoumarin) and recombinant human P450.

[4] = Geometric Mean ± SEM, HCl salts, read-out: Equilibrium Dissociation Constant (KD) for Transporter Binding, hDAT (D)
[5] = Geometric Mean ± SEM, HCl salts, read-out: Equilibrium Dissociation Constant (KD) for Transporter Binding, hNET (N)
[6] = when the compound occupies 95% of hSERT binding sites, calculation based on occupancy theory

Structure (SMILES) | Potency (rank order, transport into rat brain synaptosomal preparations) [1] | Kd [2] | Kd [3] | Kd [2, 4] | Kd [3, 5] | IC50 (hERG) | Binding at hDAT compared to PRC200-SS [2] | further results
CNCC(c1ccc2ccccc2c1)C(F)c1ccccc1 (racemic) [MCJ001-F-(±)-RR, (2R,3R/2S,3S)-3-fluoro-N-methyl-2-(naphthalen-2-yl)-3-phenylpropan-1-amine] | N > S > D | 140 ± 10 nM | 4.5 ± 0.8 nM | – | – | – | – | –
CNC[C@H](c1ccc2ccccc2c1)[C@H](OCCCCCO[C@H](c1ccccc1)[C@H](CNC)c1ccc2ccccc2c1)c1ccccc1 [MCJ001-Dimer5-SS, (2S,2′S,3S,3′S)-3,3′-(pentane-1,5-diylbis(oxy))bis(N-methyl-2-(naphthalen-2-yl)-3-phenylpropan-1-amine)] | S > N > D | – | – | 113 ± 6 nM | 160 ± 30 nM | – | – | –
CNC[C@H](c1ccc2ccccc2c1)[C@@H](F)c1ccccc1 [MCJ001-F-RS, (2S,3R)-3-fluoro-N-methyl-2-(naphthalen-2-yl)-3-phenylpropan-1-amine] | S = N > D | 19 ± 2 nM | 0.9 ± 0.1 nM | – | – | 92400 nM | Enhanced binding to hDAT | Blocking of hERG channel compared with PRC200-SS (hERG): weaker than PRC200-SS at blocking this channel; Potency of inhibition at CYP2D6, in words (CYP2D6): markedly reduced the potency of inhibition at CYP2D6; IC50 (CYP2D6; recombinant human P450, AMMC substrate, read-out: Mean CYP2D6 (IC50)): 160 nM
CNC[C@@H](c1ccc2ccccc2c1)[C@H](F)c1ccccc1 [MCJ001-F-SR, (2R,3S)-3-fluoro-N-methyl-2-(naphthalen-2-yl)-3-phenylpropan-1-amine] | S > N > D | 36 ± 6 nM | 430 ± 70 nM | – | – | 94000 nM | potently binds to hDAT, in the range of that seen with PRC200-SS | Blocking of hERG channel compared with PRC200-SS (hERG): weaker than PRC200-SS at blocking this channel; Binding at hNET compared to PRC200-SS ([3]; in words): much more weakly at hNET and hSERT
CNC[C@H](c1ccc2ccccc2c1)[C@@H](N=[N+]=[N-])c1ccccc1 [MCJ001-N3-RS, (2S,3R)-3-azido-N-methyl-2-(naphthalen-2-yl)-3-phenylpropan-1-amine] | N > S > D | – | – | 190 ± 20 nM | 64 ± 7 nM | 39200 nM | – | IC50 (CYP2D6): 4000 nM
CNC[C@@H](c1ccc2ccccc2c1)[C@H](N=[N+]=[N-])c1ccccc1 [MCJ001-N3-SR, (2R,3S)-3-azido-N-methyl-2-(naphthalen-2-yl)-3-phenylpropan-1-amine] | N > S > D | – | – | 1440 ± 70 nM | 700 ± 100 nM | – | – | –
CNC[C@H](c1ccc2ccccc2c1)[C@H](OC)c1ccccc1 [MCJ001-OMe-SS, (2S,3S)-3-methoxy-N-methyl-2-(naphthalen-2-yl)-3-phenylpropan-1-amine] | S > N > D | 40.6 ± 0.8 nM | – | – | 1.4 ± 0.2 nM | – | – | Potency of inhibition at CYP2D6, in words (CYP2D6): markedly reduced the potency of inhibition at CYP2D6
CN(C)C[C@H](c1ccc2ccccc2c1)[C@H](N)c1ccccc1 [MCJ002-NH2-SS, (2S,3S)-N1,N1-dimethyl-2-(naphthalen-2-yl)-3-phenylpropane-1,3-diamine] | – | 4.2 ± 0.2 nM | – | – | 12.6 ± 0.9 nM | 67900 nM | several fold more potent binding at hDAT | Occupancy of hDAT binding sites [2, 6]: 92%; Occupancy of hNET binding sites [3, 6]: 79%
